Test results taken from patent publication EP0315467A2, “Pentamidine salts useful in the treatment and prophylaxis of pneumocystis carinii pneumonia” (LyphoMed, Inc., priority 1987, dated 1989).
Where a name gives a salt, the structure may show the parent alone.

Legend:
[1] = Solubility in water of pentamidine salts; format: physicochemical; details: for Solubility in H₂O: Table I
[2] = background statement on the prior art; cited from earlier work

Compound | Solubility in H₂O [1] | other results
N=C(N)c1ccc(OCCCCCOc2ccc(C(=N)N)cc2)cc1 [Pentamidine Acetate] | 17.0 mg/mL | –
N=C(N)c1ccc(OCCCCCOc2ccc(C(=N)N)cc2)cc1 [Pentamidine Borate] | 6.9 mg/mL | –
N=C(N)c1ccc(OCCCCCOc2ccc(C(=N)N)cc2)cc1 [Pentamidine Citrate] | 0.6 mg/mL | –
N=C(N)c1ccc(OCCCCCOc2ccc(C(=N)N)cc2)cc1 [Pentamidine Gluconate] | 114.8 mg/mL | solubility ([1]; bound stated in the text): > 100 mg/mL
N=C(N)c1ccc(OCCCCCOc2ccc(C(=N)N)cc2)cc1 [Pentamidine Hydrochloride, reference compound] | – | solubility in water (in words) [2]: substantially water insoluble; Solubility in H₂O ([1]; Hydrochloride): 14.5 mg/mL
N=C(N)c1ccc(OCCCCCOc2ccc(C(=N)N)cc2)cc1 [Pentamidine Lactate] | 100.3 mg/mL | water solubility ([1]; bound stated in the text): greater than 100 mg/mL
N=C(N)c1ccc(OCCCCCOc2ccc(C(=N)N)cc2)cc1 [Pentamidine Nitrate] | 1.8 mg/mL | –
N=C(N)c1ccc(OCCCCCOc2ccc(C(=N)N)cc2)cc1 [Pentamidine Phosphate] | 16.8 mg/mL | –
N=C(N)c1ccc(OCCCCCOc2ccc(C(=N)N)cc2)cc1 [Pentamidine Sulfate] | 1.4 mg/mL | –
N=C(N)c1ccc(OCCCCCOc2ccc(C(=N)N)cc2)cc1 [Pentamidine Tartarate] | 3.4 mg/mL | –
